Results published in patent US20130059879A1, “Small Molecule Inhibitors of PFKFB3 and Glycolytic Flux and Their Methods of Use as Anti-Cancer Therapeutics” (UNIVERSITY OF LOUISVILLE RESEARCH FOUNDATION, INC., priority 2010, published 2013).

Assays:
Calu-6 = assay: Cancer cell proliferation, Alamar Blue assay, 72 hours; format: cell-based; settings: Homo sapiens, Calu-6
Experimental: (§1) The ability of the compounds described herein to kill or inhibit the proliferation of cancer cells was measured using either the MTT assay, or the Alamar Blue assay, or the Cell Titer Glow® assay using 48 or 72 hours exposure. […] The procedures are briefly described below. Cells of the desired tumor cell line were plated at 2×10^5 cells/ml in 96 well plates. Twice the indicated concentrations of the compounds of the invention were added to cells the following day in an equal volume of media. 72 hours later, cells were lysed and subjected to ATP determination using the CellTiter Glo-Luminescent Cell Viability Assay kit (Promega, Madison, Wis.). Experiments were done in triplicate. When using the MTT assay or the Alamar blue assay, the experimental conditions are essentially similar; at the end of the incubation period, 20 microliters of the MTT solution is added per well and the samples are incubated for an additional four hours, rinsed, and the absorbance at 570 nm measured. […] Table 2 lists the IC50 values for the compounds of the invention in several cell lines including Jurkat, Calu-6, NCI-H82, U937, HCT-116, and MDA-MB-231 cancer cell lines.

HCT-116 = assay: as above; format: cell-based; settings: Homo sapiens, HCT-116
Experimental: as §1

Jurkat = assay: as above; format: cell-based; settings: Homo sapiens, Jurkat
Experimental: as §1

MDA-MB-231 = assay: as above; format: cell-based; settings: Homo sapiens
Experimental: as §1

NCI-H82 = assay: as above; format: cell-based; settings: Homo sapiens, NCI-H82, read-out: IC50 NCl-H82
Experimental: as §1

U937 = assay: as above; format: cell-based; settings: Homo sapiens, U-937
Experimental: as §1

PFKFB3 = target: T1, PFKFB3 (Homo sapiens, UniProt Q16875); assay: Inhibition of recombinant PFKFB3 kinase activity (ADP Glow assay); format: biochemical; settings: 250 nM analog concentration; read-out: % Inhibition of PFKFB3 Enzymatic Activity
T1 construct: GST
Experimental: PFKFB3 was prepared by expression in E. coli and purified by GST column and column chromatography. […] The recombinant protein was pure and active as determined by the results of a kinase activity assay commercially available (such as ADP Glow® assay, […]). The same assay was used to determine the inhibition of the protein and the results are shown in Table 5 below (IC50 values or percent inhibition at a fixed concentration). Results confirmed that the compounds of the invention have low nanomolar IC50 values, interacting with PFKFB3 and inhibiting its enzymatic activity.

[1] = Microsomal stability in human liver microsomes; format: in vitro ADME
Experimental: Microsomal stability in vitro in different biologic media (liver microsomes, S9 fraction, hepatocytes) and species is ascertained to evaluate the rate at which a compound undergoes metabolism in the experimental in vitro conditions. Results for some compounds of the invention after a 60 minutes incubation period in human liver microsomes are shown in the Table 6 below. […] Experimental conditions are briefly described here: the stability in human liver microsomes of several compounds was done over […] at 37° C. using pooled mixed gender human liver microsomes. These liver microsomes were prepared at 1.0 mg/ml of microsomal protein in a 100 mM potassium phosphate pH 7.4 buffer with 1 mM NADPH. The media was incubated at 37° C. with the compound in solution in DMSO. The concentration of the compound was followed by LC/MS-MS as a function of time. Samples were assayed at t=0, 15, 30, and 60 minutes. Testosterone was used as a positive control. The same experiment was performed with mouse, rat or dog liver microsomes instead of human liver microsomes.

[2] = Cell permeability in Caco2 monolayers; format: in vitro ADME; settings: human, Caco-2, Caco2 cells, pH 7.4
Excerpt: The determination of the permeability in Caco2 or MDR1-MDCK cells is widely used when screening compounds to assess cell permeability, intestinal drug transport and predict absorption rates and to ascertain if a compound might be a Pgp substrate and have cross the blood brain barrier. […] Comparison of the apical to basal (A-B) and basal to apical (B-A) values show if a compound is actively effluxed out the cells and if it is a Pgp substrate. […] Briefly, cell permeability and transport mechanisms in Caco-2 and MDR1-MDCK monolayers experiments were performed in triplicate in the apical-to-basolateral and basolateral-to-apical direction using Transwell wells containing either Caco-2 or MDR1-MDCK monolayers. A modified Hanks buffer pH 7.4 was used in both reservoir and receiver wells with the addition of 1% BSA in the receiver side. Confluent monolayers were used and their integrity was verified using reference compounds (Atenolol as a low permeability reference compound and Propanolol as a high permeability reference compound). A sample in the basolateral and apical sides was taken after 2 hours and the concentration measured by LC/MS-MS.

Pharmacokinetics in mice = format: in vivo, Balbc mice
Experimental: The pharmacokinetic parameters for several compounds were determined in mice following IV (intravenous), IP (intraperitoneal), or PO (per os) administration, as well as in rats and dogs. A typical study design includes six Balbc male mice 7 to 8 weeks old. For instance, a dose of 10 mg/kg was administered IV using a 5% DMS0/90% Captisol (20% in water) solution or other pharmaceutically acceptable parenteral and oral formulations. Blood samples were collected at different intervals. Plasma samples were extracted and analyzed using an LC-MS/MS method. Similar protocols were used for the rats (Sprague Dawley rats) or dogs (beagles) PK studies; in the case of dogs PK studies, the number of animals per group was three.
PFK-065 was dosed at 10 mg/kg in male Balbc mice; PFK-095 was dosed at 10 mg/kg in male Sprague Dawley rats; and PFK-112 dosed at 6 mg/kg in male beagle dogs.

[3] = mouse, plasma, IV 10 mg/kg, male Balbc mice

T1 sequence (Q16875 whole entry, species assumed): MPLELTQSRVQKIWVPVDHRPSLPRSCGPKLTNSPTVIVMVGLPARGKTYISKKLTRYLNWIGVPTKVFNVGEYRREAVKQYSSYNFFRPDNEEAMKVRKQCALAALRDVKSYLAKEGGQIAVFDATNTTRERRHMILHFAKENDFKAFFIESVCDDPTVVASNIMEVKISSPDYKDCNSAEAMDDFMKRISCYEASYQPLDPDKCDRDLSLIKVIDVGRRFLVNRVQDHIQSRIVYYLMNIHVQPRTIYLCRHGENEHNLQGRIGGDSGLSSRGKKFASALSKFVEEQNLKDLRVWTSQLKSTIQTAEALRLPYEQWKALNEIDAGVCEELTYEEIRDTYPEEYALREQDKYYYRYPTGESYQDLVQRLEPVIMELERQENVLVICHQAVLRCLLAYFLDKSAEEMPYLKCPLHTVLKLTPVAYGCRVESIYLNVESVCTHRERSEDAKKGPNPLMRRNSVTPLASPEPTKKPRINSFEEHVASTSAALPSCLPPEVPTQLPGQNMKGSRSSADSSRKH

## O=C(c1ccccc1)c1cc2c(ccc3ccccc32)[nH]1 [ACT-PFK-065, (3H-Benzo[e]indol-2-yl)-phenyl-methanone]
Calu-6
  IC50: 267 nM
HCT-116
  IC50: 1310 nM
Jurkat
  IC50: 775 nM
MDA-MB-231
  IC50: 625 nM
NCI-H82
  IC50: 283 nM
U937
  IC50: 165 nM
PFKFB3
  inhibition at 0.25 µM: 13.5%
[1]; 0 min
  HLM, Mean metabolized (%): 0.0%
[1]; 60 min incubation, 1.0 mg/ml microsomal protein, 1 mM NADPH, 37° C.
  HLM, Mean metabolized (%): 93%
[2]; apical to basal
  Papp A→B at 2 h: 10.3 ×10⁻⁶ cm/s
[2]; basal to apical
  Papp B→A at 2 h: 5.9 ×10⁻⁶ cm/s
Pharmacokinetics in mice; IV 10 mg/kg, male Balbc mice
  T1/2b: 2.1 h
Pharmacokinetics in mice; [3]
  AUC(0-inf): 2630 ng·h/mL
  Cmax: 4110 ng/mL
  Vd: 11.2 L/kg
Pharmacokinetics in mice; oral bioavailability, Balbc mice, PO 20 mg/kg vs IV 10 mg/kg
  % F (from PO group): 25%
